From ChEMBL document CHEMBL4419121, “Tetrahydropyridopyrazines modulators of gpr6” (2018)

biological target: T1, G-protein coupled receptor 6 (Homo sapiens, UniProt P46095); assay: Modulation activity at GPR6 receptor (unknown origin) expressed in CHO-K1 cells assessed as inhibition of constitutive cAMP activity incubated for 45 mins by Perkin Elmer Lance HTRF Ultrac-AMP assay; format: functional, cell-based; conditions: not given
T1 sequence (P46095 whole entry): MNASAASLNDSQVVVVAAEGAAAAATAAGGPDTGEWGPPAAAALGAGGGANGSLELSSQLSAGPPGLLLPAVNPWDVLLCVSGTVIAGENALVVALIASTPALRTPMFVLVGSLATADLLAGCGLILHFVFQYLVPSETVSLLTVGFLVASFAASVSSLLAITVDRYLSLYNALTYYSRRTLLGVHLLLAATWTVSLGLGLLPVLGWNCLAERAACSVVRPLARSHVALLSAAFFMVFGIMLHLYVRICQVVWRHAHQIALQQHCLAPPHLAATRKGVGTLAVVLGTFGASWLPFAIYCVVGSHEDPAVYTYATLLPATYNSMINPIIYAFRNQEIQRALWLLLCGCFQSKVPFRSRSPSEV

SMILES	IC50
COCC(=O)N1CCc2nc(NC(C)C)c(N3CCC(Oc4ccc(F)cc4F)CC3)nc2C1C (centres undefined)	91 nM
CN1CCc2nc(NC3CC3)c(N3CCC([C@H](F)c4ccc(F)cc4F)CC3)nc2C1	15.2 nM
CC(C)Nc1nc2c(nc1N1CCC(Oc3ccc(F)cc3F)CC1)CN(C(=O)N(C)C)CC2	13.8 nM
CC(C)Nc1nc2c(nc1N1CCC(Oc3ccc(F)cc3F)CC1)CN(C(=O)C1CCCO1)CC2 (centres undefined)	19.5 nM
CC1Cc2nc(NCC(F)F)c(N3CCC(Oc4ccc(F)cc4F)CC3)nc2CN1C(=O)C1CC1 (centres undefined)	23.9 nM
COCC(=O)N1CCc2nc(NC(C)C)c(N3CCC(Oc4ccc(F)cc4F)CC3)nc2C1	17.3 nM
CN1CCc2nc(NC3CC3)c(N3CCC([C@@H](F)c4ccc(F)cc4F)CC3)nc2C1	26.5 nM
CC(=O)N1Cc2nc(N3CCC(Oc4ccc(F)cc4F)CC3)c(NCC(F)F)nc2CC1C (centres undefined)	24.9 nM
CC1c2nc(NCC(F)F)c(N3CCC(Oc4ccc(F)cc4F)CC3)nc2CCN1C(=O)C1CC1 (centres undefined)	85 nM
CO[C@H](C)C(=O)N1CCc2nc(NCC(F)F)c(N3CCC(Oc4ccc(F)cc4F)CC3)nc2C1	6.6 nM
CC(=O)N1CCc2nc(NC(C)C)c(N3CCC(C(=O)c4cc(Cl)ccc4F)CC3)nc2C1	9.8 nM
CO[C@@H](C)C(=O)N1CCc2nc(N3CCC(Oc4ccc(F)cc4F)CC3)c(NCC(F)F)nc2C1	111 nM
CC1c2nc(N3CCC(Oc4ccc(F)cc4F)CC3)c(NCC(F)F)nc2CCN1S(C)(=O)=O (centres undefined)	52 nM
COCC(=O)N1CCc2nc(N3CCC(Oc4ccc(F)cc4F)CC3)c(NCC(F)F)nc2C1C (centres undefined)	208 nM
CC(=O)N1CCc2nc(NC(C)C)c(N3CCC(C(F)c4ccc(F)cc4F)CC3)nc2C1 (centres undefined)	8.5 nM
COCC(=O)N1CCc2nc(NCC(F)F)c(N3CCC(Oc4ccc(F)cc4F)CC3)nc2C1C (centres undefined)	68 nM
CC(C)Nc1nc2c(nc1N1CCC(Oc3ccc(F)cc3F)CC1)CCN(C(=O)N1CCOCC1)C2	62.6 nM
CC(=O)N1CCc2nc(NC(C)C)c(N3CCC(Oc4ccc(C#N)cc4F)CC3)nc2C1	105 nM
CC(C)Nc1nc2c(nc1N1CCC(C(=O)c3cc(Cl)ccc3F)CC1)CCN(C(=O)N(C)C)C2	32.7 nM
COC(C)C(=O)N1CCc2nc(N3CCC(Oc4ccc(F)cc4F)CC3)c(NC(C)C)nc2C1 (centres undefined)	16.8 nM
CC(C)Nc1nc2c(nc1N1CCC(Oc3ccc(C#N)cc3F)CC1)CN(C(=O)C1CC1)CC2	122 nM

biological target: T1, G-protein coupled receptor 6; assay: Modulation activity at GPR6 receptor (unknown origin) expressed in CHO-K1 cells assessed as inhibition of constitutive cAMP activity incubated for 45 mins in presence of 300 uM IBMX by Perkin Elmer Lance HTRF Ultrac-AMP assay; format: functional, cell-based; conditions: not given

SMILES	IC50
[2H]C([2H])([2H])C(=O)N1CCc2nc(N3CCC(Oc4ccc(F)cc4F)CC3)c(NC(C)C)nc2C1	33.7 nM
COC[C@@H](C)Nc1nc2c(nc1N1CCC(Oc3ccc(F)cc3F)CC1)CCN(C(C)=O)C2	> 1000 nM
COC[C@H](C)Nc1nc2c(nc1N1CCC(Oc3ccc(F)cc3F)CC1)CCN(C(C)=O)C2	107 nM

same assay, conditions: cho-k1

SMILES	IC50
CC1c2nc(NCC(F)F)c(N3CCC(Oc4ccc(F)cc4F)CC3)nc2CCN1C(=O)C(F)F (centres undefined)	212 nM
CS(=O)(=O)N1CCc2nc(N3CCC(Oc4ccc(F)cc4F)CC3)c(NC3CCC3)nc2C1	49.3 nM
CC(C)Nc1nc2c(nc1N1CCC(Oc3ccc(F)cc3F)CC1)CN(C)CC2	59.5 nM
CC(=O)N1CCc2nc(N3CCC(Oc4ccc(F)cc4F)CC3)c(N[C@H]3C[C@H](O)C3)nc2C1	78 nM
CC(=O)N1CCc2nc(NC(C)C)c(N3CCC(S(=O)(=O)c4cccc(F)c4)CC3)nc2C1	250 nM
CC(=O)O[C@H]1C[C@H](Nc2nc3c(nc2N2CCC(Oc4ccc(F)cc4F)CC2)CCN(C(C)=O)C3)C1	604 nM
CC(=O)N1CCc2nc(N3CCC(Oc4ccc(F)cc4F)CC3)c(N[C@H]3C[C@@H](O)C3)nc2C1	61.5 nM
CC(C)Nc1nc2c(nc1N1CCC(Oc3ccc(F)cc3F)CC1)CCN(C(=O)[C@@H]1CCCN1C)C2	78.1 nM
CC(=O)N1CCc2nc(N3CCC(Oc4ccc(F)cc4F)CC3)c(NC3CCC3)nc2C1	55 nM
CC(C)Nc1nc2c(nc1N1CCC(Oc3ccc(F)cc3F)CC1)CCN(C(=O)C(F)F)C2	129 nM
CCC(=O)N1CCc2nc(N3CCN(Cc4ccc(F)cc4F)CC3)c(N[C@H]3CCOC3)nc2C1	59.1 nM
CC(C)Nc1nc2c(nc1N1CCN(Cc3ccc(F)cc3F)CC1)CCN(C(=O)C(C)C)C2	29 nM
CC(C)Nc1nc2c(nc1N1CCC(Oc3ccc(F)cc3F)CC1)CCN(S(C)(=O)=O)C2C (centres undefined)	59.3 nM
COc1ccc(OC2CCN(c3nc4c(nc3NC(C)C)CN(C(C)=O)CC4)CC2)c(F)c1	74.1 nM
CS(=O)(=O)N1CCc2nc(NCC(F)F)c(N3CCC(Oc4ccc(F)cc4F)CC3)nc2C1	163 nM
CC(C)Nc1nc2c(nc1N1CCC(Oc3ccc(F)cc3F)CC1)CN(CC(F)F)CC2	200 nM
CC(C)Nc1nc2c(nc1N1CCC(Oc3ccc(F)cc3F)CC1)CN(CCF)CC2	69.2 nM
COc1ccc(OC2CCN(c3nc4c(nc3NC(C)C)CCN(C(C)=O)C4)CC2)c(F)c1	62.5 nM
COC(=O)N1CCc2nc(NC(C)C)c(N3CCC(Oc4ccc(F)cc4F)CC3)nc2C1	132 nM
CC(C)Nc1nc2c(nc1N1CCC(Oc3ccc(F)cc3F)CC1)CN(C=O)CC2	43.2 nM
CC(C)Nc1nc2c(nc1N1CCC(C(F)c3ccc(F)cc3F)CC1)CCN(C)C2 (centres undefined)	30.3 nM
CC(=O)N1CCc2nc(N3CCN(Cc4ccc(F)cc4F)CC3)c(N[C@H]3CCOC3)nc2C1	97.8 nM

SMILES	IC50
CC(C)Nc1nc2c(nc1N1CCC(Oc3ccc(F)cc3F)CC1)CCN(C)C2	90.1 nM
CC(C)Nc1nc2c(nc1N1CCC(Oc3ccc(F)cc3F)CC1)CCN(C(=O)C1CC1)C2	340 nM
CCC(=O)N1CCc2nc(N3CCC(Oc4ccc(F)cc4F)CC3)c(NC(C)C)nc2C1	27.6 nM
CC1c2nc(N3CCC(Oc4ccc(F)cc4F)CC3)c(NCC(F)F)nc2CCN1C(=O)C(F)F (centres undefined)	193 nM
CC(C)Nc1nc2c(nc1N1CCC(Oc3ccc(F)cc3F)CC1)CCN(C(=O)C(F)F)C2C (centres undefined)	95 nM
CC(=O)N1CCc2nc(N3CCC(Oc4ccc(F)cc4F)CC3)c(NC3CC(F)(F)C3)nc2C1	35.9 nM
COCC(=O)N1CCc2nc(N3CCC(Oc4ccc(F)cc4F)CC3)c(NC(C)C)nc2C1	71.5 nM
CC(C)Nc1nc2c(nc1N1CCN(Cc3ccc(F)cc3F)CC1)CCN(S(C)(=O)=O)C2	27.9 nM
CC(=O)N1CCc2nc(N3CCC(Oc4ccc(F)cc4F)CC3)c(NCC(F)F)nc2C1	49.7 nM
CC(=O)O[C@H]1C[C@@H](Nc2nc3c(nc2N2CCN(Cc4ccc(F)cc4F)CC2)CCN(C(C)=O)C3)C1	220 nM
CC(=O)N1CCc2nc(N3CCN(Cc4ccc(F)cc4F)CC3)c(N[C@@H]3CCOC3)nc2C1	63.2 nM
CC(=O)N1CCc2nc(N3CCC([C@H](F)c4ccc(F)cc4F)CC3)c(NC(C)C)nc2C1	27.4 nM
CC(=O)N1CCc2nc(N3CCN(Cc4ccc(F)cc4F)CC3)c(NC(C)C)nc2C1	27 nM
CC(=O)N1CCc2nc(N3CCN(Cc4ccc(F)cc4F)CC3)c(N[C@H]3C[C@@H](O)C3)nc2C1	122 nM
CC(=O)N1CCc2nc(N3CCN(Cc4ccc(C#N)cc4F)CC3)c(NC(C)C)nc2C1	363 nM
CC[C@@H](C)Nc1nc2c(nc1N1CCC(Oc3ccc(F)cc3F)CC1)CCN(C(C)=O)C2	319 nM
CC(C)Nc1nc2c(nc1N1CCC(Oc3ccc(F)cc3F)CC1)CN(C(=O)C1CC1)CC2	211 nM
COc1ccc(S(=O)(=O)C2CCN(c3nc4c(nc3NC(C)C)CCN(C(C)=O)C4)CC2)c(F)c1	200 nM
CC(C)Nc1nc2c(nc1N1CCC(Oc3ccc(F)cc3F)CC1)CCN(CCF)C2	74.8 nM
CC(=O)N1CCc2nc(NC(C)C)c(N3CCC(S(=O)(=O)c4ccc(F)cc4)CC3)nc2C1	188 nM
CC(C)Nc1nc2c(nc1N1CCC(Oc3ccc(F)cc3F)CC1)CCN(C(=O)N(C)C)C2C (centres undefined)	110 nM
CC(C)Nc1nc2c(nc1N1CCC([C@@H](F)c3ccc(F)cc3F)CC1)CCN(C=O)C2	23.6 nM

SMILES	IC50
CC(=O)O[C@H]1C[C@@H](Nc2nc3c(nc2N2CCC(Oc4ccc(F)cc4F)CC2)CCN(C(C)=O)C3)C1	114 nM
CC(C)Nc1nc2c(nc1N1CCC(Oc3ccc(F)cc3F)CC1)C(C)N(C(=O)N(C)C)CC2 (centres undefined)	179 nM
CC(=O)N1CCc2nc(NC(C)C)c(N3CCC(S(=O)(=O)c4ccccc4F)CC3)nc2C1	247 nM
COCC(=O)N1CCc2nc(NCC(F)F)c(N3CCC(Oc4ccc(F)cc4F)CC3)nc2C1	79.5 nM
CCC(=O)N1CCc2nc(N3CCN(Cc4ccc(F)cc4F)CC3)c(NC(C)C)nc2C1	30.9 nM
CC(=O)N1CCc2nc(N3CCC(Oc4ccc(F)cc4F)CC3)c(NC(C)C)nc2C1C (centres undefined)	73.2 nM
O=C(C(F)F)N1CCc2nc(NCC(F)F)c(N3CCC(Oc4ccc(F)cc4F)CC3)nc2C1	111 nM
CC(C)Nc1nc2c(nc1N1CCC(C(F)c3ccc(F)cc3F)CC1)CN(C)CC2 (centres undefined)	17.1 nM
CC1c2nc(N3CCC(Oc4ccc(F)cc4F)CC3)c(NCC(F)F)nc2CCN1C(=O)N(C)C (centres undefined)	93.5 nM
CC(=O)N1CCc2nc(N3CCN(Cc4ccc(F)cc4F)CC3)c(N[C@H]3C[C@H](F)C3)nc2C1	186 nM
CC(C)Nc1nc2c(nc1N1CCC(Oc3ccc(F)cc3F)CC1)CCN(S(C)(=O)=O)C2	61.8 nM
CC(C)Nc1nc2c(nc1N1CCC([C@H](F)c3ccc(F)cc3F)CC1)CCN(C=O)C2	11.4 nM
CC(C)Nc1nc2c(nc1N1CCC(Oc3ccc(F)cc3F)CC1)C(C)N(C(=O)C(F)F)CC2 (centres undefined)	116 nM
CC(=O)N1CCc2nc(N3CCN(Cc4ccc(F)cc4F)CC3)c(NC3CCC3)nc2C1	43.7 nM
CCC(=O)N1CCc2nc(N3CCC(Oc4ccc(F)cc4F)CC3)c(N[C@H]3CCOC3)nc2C1	39.2 nM
CC[C@H](C)Nc1nc2c(nc1N1CCC(Oc3ccc(F)cc3F)CC1)CCN(C(C)=O)C2	62 nM
CC(C)Nc1nc2c(nc1N1CCC(Oc3ccc(F)cc3F)CC1)CN(S(C)(=O)=O)CC2	95.6 nM
CC(=O)N1CCc2nc(N3CCC([C@@H](F)c4ccc(F)cc4F)CC3)c(NC(C)C)nc2C1	37.8 nM
COC(=O)N1CCc2nc(N3CCC(Oc4ccc(F)cc4F)CC3)c(NC(C)C)nc2C1	130 nM
COc1cccc(S(=O)(=O)C2CCN(c3nc4c(nc3NC(C)C)CCN(C(C)=O)C4)CC2)c1	342 nM
COc1ccc(OC2CCN(c3nc4c(nc3NC(C)C)CN(C)CC4)CC2)c(F)c1	140 nM
